Experiment: Non-competitive inhibition of bacterial C-terminal His6-tagged ErmC' (unknown origin) expressed in Escherichia coli BL21(DE3) in presence of [methyl-3H]SAM

Row | SMILES | IC50 [µM]
1 | O=C(Nc1ccncc1)c1ccn(COc2ccc(F)c(Cl)c2)n1 | > 500
2 | COc1ccc(C(=O)CSc2nc(O)cc(=O)[nH]2)cc1 | > 500
3 | O=C(Nc1ccn(CCc2ccncc2)n1)Nc1ccc(F)cc1F | 500
4 | O=C(c1n[nH]c(=O)[nH]1)N1CCN(c2ccc(C(F)(F)F)cn2)CC1 | > 500
5 | CC(=O)c1c[nH]c(C(=O)N2CCN(c3ccc(C(F)(F)F)cn3)CC2)c1 | > 500
6 | CN(C)c1ccc(CNC(=O)c2ccc(-n3cncn3)cc2)cc1 | > 500
7 | O=C(c1cn(-c2ccccc2)nn1)N1CCN(c2ccc(C(F)(F)F)cn2)CC1 | 500
8 | O=C(c1cnn[nH]1)N1CCN(c2ccc(C(F)(F)F)cn2)CC1 | > 500
9 | O=C(c1cc(C2CC2)n[nH]1)N1CCN(c2ccc(C(F)(F)F)cn2)CC1 | > 500
10 | O=C(Nc1cccc(NC(=O)c2cccc(F)c2)c1)c1ccncc1 | 250
11 | O=C(Cc1cn2ccsc2n1)Nc1cccc(N2CCCC2=O)c1 | > 500

Second part, the compound after the results:

Row | IC50 [µM] | SMILES
12 | 500 | O=C(Cc1cccc(F)c1)Nc1cccc(-c2ccn[nH]2)c1
13 | 500 | Nn1c(SCc2nc3ccccc3[nH]2)nnc1-c1ccncc1
14 | > 250 | O=C(CSc1nnc2c(n1)[nH]c1ccccc12)Nc1ccccn1
15 | 250 | Cc1occc1C(=O)Nc1nc(CC(=O)Nc2ccccc2)cs1
16 | > 500 | O=C(Nc1cccc(NCc2ccncc2)c1)c1ccccc1Cl

Experiment: Competitive inhibition of bacterial C-terminal His6-tagged ErmC' expressed in Escherichia coli BL21(DE3) in presence of [methyl-3H]SAM

Row | Ki [µM] | SMILES
17 | 354 | CC(=O)Nc1nc(C)c(-c2csc(Nc3cccc(O)c3)n2)s1
18 | 111 | O=C(c1csc(Nc2ncccn2)n1)N1CCN(c2ccc(C(F)(F)F)cn2)CC1

Experiment: Inhibition of bacterial C-terminal His6-tagged ErmC' expressed in Escherichia coli BL21(DE3) assessed as decrease of protein binding to [gamma-33P]ATP-labeled 32-nt oligonucleotide after 30 mins by filter binding assay

Row | Kd [µM] | SMILES
19 | 0.04 | O=C(c1csc(Nc2ncccn2)n1)N1CCN(c2ccc(C(F)(F)F)cn2)CC1
20 | 1.04 | Cc1cccc(Nc2nc(C(=O)N3CCN(c4ccc(C(F)(F)F)cn4)CC3)cs2)n1

Experiment: Inhibition of bacterial ErmC' assessed as decrease in rRNA methylation preincubated for 15 mins followed by S-adenosyl-L-[methyl3H]methionine addition measured after 2 hrs by scintillation counting method

Row | IC50 [µM] | SMILES
21 | 18 | Cc1nccc(C(=O)Nc2cc(NC(=O)c3ccccc3)ccc2C)n1

Experiment: Inhibition of bacterial C-terminal His6-tagged ErmC' expressed in Escherichia coli ER2566 assessed as decrease in rRNA methylation using [methyl-3H]AdoMet measured after 1 hr

Row | IC50 [µM] | SMILES
22 | 180 | Cc1ccc(Sc2cc(C)c(C#N)c(Sc3ccc(C)cc3)n2)cc1
23 | 250 | COC(=O)c1sc2ccccc2c1OS(=O)(=O)c1ccc(Cl)cc1
24 | 300 | O=C1c2ccccc2C(=O)N1CN(CCCn1ccnc1)CN1C(=O)c2ccccc2C1=O
25 | 250 | Clc1ccccc1Cn1nnc2c(N/N=C/c3cccnc3)ncnc21

Experiment: Inhibition of bacterial C-terminal His6-tagged ErmC' (unknown origin) expressed in Escherichia coli BL21(DE3) assessed as decrease in rRNA methylation using [methyl-3H]AdoMet measured after 1 hr

Row | SMILES | IC50 [µM]
26 | O=C(c1c[nH]c(=O)[nH]1)N1CCN(c2ccc(C(F)(F)F)cn2)CC1 | 100
27 | O=C(NCCOc1ccc2c(c1)OCO2)c1ccc2ccccc2n1 | 500
28 | CC(=O)Nc1ccc(S(=O)(=O)NCCc2ccncc2)cc1 | 500
29 | CCCc1cc(C(=O)Nc2cccc(OCc3ccncc3)c2)[nH]n1 | 250
30 | FC(F)(F)c1ccc(N2CCN(Cc3c[nH]c(-c4ccccc4)n3)CC2)nc1 | > 500
31 | O=C(c1cc(Cl)c[nH]1)N1CCN(c2ncc(C(F)(F)F)cc2Cl)CC1 | > 500
32 | FC(F)(F)c1ccc(N2CCN(Cc3cn4ccccc4n3)CC2)nc1 | > 500
33 | CC(=O)Nc1nc(C)c(-c2csc(Nc3cccc(O)c3)n2)s1 | 299
34 | O=C(c1csc(Nc2ncccn2)n1)N1CCN(c2ccc(C(F)(F)F)cn2)CC1 | 110
35 | O=C(NC1CCN(c2nc3ccccc3s2)CC1)c1ccncc1 | > 500
36 | Cc1cccc(Nc2nc(C(=O)N3CCN(c4ccc(C(F)(F)F)cn4)CC3)cs2)n1 | 116

More lines, now with the values ahead:

Row | IC50 [µM] | SMILES
37 | > 500 | Nc1nc(N)nc(CSc2nnc(NCc3ccccc3)s2)n1
38 | > 250 | O=C(Nc1nccs1)c1cc(-c2ccccn2)nc2ccccc12
39 | 250 | O=C(NCCSc1ccccc1)c1ccc(-n2cncn2)cc1
40 | 500 | O=C(NCc1cccc(Cn2ccnc2)c1)c1cc2ccccc2o1
41 | 500 | Cn1cnnc1-c1cccc(NC(=O)Cc2cccc(F)c2)c1
42 | > 500 | O=C(CSc1nc2cccnc2[nH]1)Nc1nccs1

Experiment: Non-competitive inhibition of bacterial C-terminal His6-tagged ErmC' (unknown origin) expressed in Escherichia coli BL21(DE3) in presence of [methyl-3H]SAM
Remark: another data set of the same source

Row | Ki [µM] | SMILES
43 | 148 | O=C(c1c[nH]c(=O)[nH]1)N1CCN(c2ccc(C(F)(F)F)cn2)CC1

Source: BindingDB's records for doi:10.1016/j.ejmech.2017.11.032 (International Institute of Molecular and Cell Biology, 2018)
